Where “and” joins values, the source holds several entries; their conditions need not be identical. Equal values may be shown once.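 In this assay, cells in 96-well plates receive the compound at five concentrations for 48 hours. Endpoints are linearly interpolated between the surrounding concentrations. GI50 marks 50% less growth. At the TGI there is no net growth.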
Legend:
Experiment in all cases: NCI-60 cell line screen, 48 h
RPMI-8226 leukemia = test system: RPMI-8226 leukemia
HL-60(TB) leukemia = test system: HL-60(TB) leukemia
MALME-3M melanoma = test system: MALME-3M melanoma
UACC-257 melanoma = test system: UACC-257 melanoma
NCI-H23 lung = test system: NCI-H23 lung
ACHN renal = test system: ACHN renal
U251 CNS = test system: U251 CNS
SF-539 CNS = test system: SF-539 CNS
T-47D breast = test system: T-47D breast
MDA-N = test system: MDA-N

SMILES	GI50 (RPMI-8226 leukemia) [µM]	TGI (RPMI-8226 leukemia)	GI50 (HL-60(TB) leukemia) [µM]	TGI (HL-60(TB) leukemia)	GI50 (MALME-3M melanoma) [µM]	TGI (MALME-3M melanoma) [µM]	TGI (UACC-257 melanoma) [µM]	GI50 (NCI-H23 lung) [µM]	TGI (NCI-H23 lung)	TGI (ACHN renal) [µM]	GI50 (U251 CNS) [µM]	TGI (U251 CNS)	GI50 (SF-539 CNS) [µM]	TGI (SF-539 CNS)	TGI (T-47D breast) [µM]	TGI (MDA-N) [µM]	GI50 (UACC-257 melanoma) [µM]	GI50 (ACHN renal) [µM]	GI50 (T-47D breast) [µM]
Cc1c2ccnc(C(N)=O)c2c(C)c2c1[nH]c1ccccc12	3.58	34.5 µM and 16.4 µM	4.36	38.3 µM and > 100 µM	5.02	19.3	35.1	3.41	24.4 µM and 18.9 µM	13.8	4.14	37.7 µM and 16.5 µM	3.75	23.9 µM and 13.9 µM					
CC(=O)NNc1nc(C)c(C(=O)NNC(=O)C(=O)Nc2ccc([N+](=O)[O-])cc2[N+](=O)[O-])s1		> 100 µM		> 100 µM			> 100		> 100 µM	> 100		> 100 µM		> 100 µM					
OCc1ccc2c(c1)CC1(C2)Cc2cc3c(cc2C1O)CCC3 (stereo not given)		15.8 µM		> 23.4 µM		19.2	12.6		25.7 µM	41.3		20.6 µM		14.9 µM	9.44				
O=c1oc2ccccc2c(O)c1Cc1ccc(Cc2c(O)c3ccccc3oc2=O)cc1				> 100 µM		> 100	> 100		> 100 µM			> 100 µM		> 100 µM	> 100	> 100			
COC(=O)c1ccccc1C1CN=NC12Cc1c(ccc(C)c1C)C2=O (stereo not given)				> 100 µM		> 100	> 100		> 100 µM	> 100		> 100 µM			> 100	> 100			
COc1ccc(C)cc1N1C(=O)C2ON(Cc3ccc(CC(N)=O)cc3)C(c3c4ccccc4c(Cl)c4ccccc34)C2C1=O (stereo not given)				> 100 µM		> 100	33.2		96.4 µM	75		60.4 µM			> 100	33			
OCc1cn(Cc2ccccc2)c2ccccc12		12.1 µM		> 83.2 µM		19.5			31 µM	> 58.2		60.6 µM		> 69 µM		> 65.5			
CCOC(=O)/C=C/c1nc(C#N)c(N)o1		> 100 µM		> 100 µM			> 100			> 100		> 100 µM				> 100			
Cc1ccc(-c2cc(-c3ccco3)c(C#N)c(=S)[nH]2)cc1		> 100 µM		> 100 µM		> 100			97.8 µM	> 100		62.9 µM			71.5				
COC(=O)/C=C(\C)CC/C=C(\C)CCC1OC1(C)C (stereo not given)				6.6 µM		29.1	23.3		24.2 µM	23.3		22.5 µM		24.1 µM		21.9			
CC1CC(N2CCOCC2)=Nc2ccccc2N1C (stereo not given)		> 100 µM		> 100 µM		> 100	> 100		> 100 µM	> 100		> 100 µM		> 100 µM		> 100			
Cc1c(N2CCOCC2)nc2ccc(Cl)cc2c1-c1ccccc1		> 100 µM		> 100 µM		> 100	> 100		> 100 µM	> 100		> 100 µM		> 100 µM					
O=C(c1ccco1)N(C(=O)N1CCCCC1)c1ccccc1		> 100 µM		> 100 µM		> 100	> 100		> 100 µM	> 100		> 100 µM		> 100 µM		> 100			
CC(=O)O[C@@H](c1nccn1Cc1ccccc1)[C@H]1OC(C)(C)O[C@@H]1[C@H]1COC(C)(C)O1		> 100 µM		> 100 µM		> 100	> 100		> 100 µM	> 100		> 100 µM		> 100 µM		> 100			
COC(=O)CNC(=O)C(CSC(=O)OCC1c2ccccc2-c2ccccc21)NC(=O)CCC(NC(=O)OCC1c2ccccc2-c2ccccc21)C(=O)OC (stereo not given)		90.1 µM		46.8 µM		76.8	> 100		37 µM	> 100				37.8 µM		38.5			
CCCCCCCCCCCCCCCCCCOc1ccccc1CC(=O)NCC[N+]1(C)CCOCC1					4.48	> 100	35.3	3.03	14.2 µM	44.6			3.35	12.8 µM	39.2		18.9	16	6.85
COC(=O)[C@]1(C)CCC[C@@]2(C)C1CC[C@]13C=C(C(C)C)[C@H](CC21)CC3(Cl)C#N (stereo not given in full)						89.7	> 100		> 100 µM	> 100		49.4 µM		> 100 µM	55.8				

— PubChem BioAssay (NCI)
